Experimental data taken from patent US20220220145A1, “CYCLIC PHOSPHATE COMPOUNDS” (priority 2019, published 2022).

Assay: Tissue distribution following oral administration of reference compounds and the disclosed compounds
Type: in vivo
Settings: rats; for levels of nucleoside phosphates in the liver compared to the reference compounds: oral administration, statement in words summarising Table 1
Experimental: The liver specificity of the disclosed compounds is compared relative to a corresponding active compound in liver and other organs that could be targets of toxicity.
Reference compounds and the cyclic phosphate compounds were administered at 5-50 mg/kg to fasted rats by oral gavage. Plasma concentrations of the metabolites, and parent compounds in circulation and in the hepatic portal vein were determined by HPLC-UV, and the liver, small intestine, and other organ concentrations were measured by LC-MS using standard chromatography methods.

| Structure (SMILES) | levels of nucleoside phosphates in the liver compared to the reference compounds | NUCHPV: ratio of new compound vs corresponding reference compound in nucleoside level in hepatic portal vein (HPV) (one hour after oral administration at 5 mg/kg nucleoside equivalent dose, hepatic portal vein) | NMPliver: ratio of new compound vs corresponding reference compound in nucleoside monophosphate level in the liver (one hour after oral administration at 5 mg/kg nucleoside equivalent dose, liver) | NUCblood: ratio of new compound vs corresponding reference compound in nucleoside level in systemic blood (one hour after oral administration at 5 mg/kg nucleoside equivalent dose, systemic blood) |
| --- | --- | --- | --- | --- |
| CC(C)OC(=O)c1ccccc1COP1(=O)OC[C@H]2O[C@@H](n3ccc(=O)[nH]c3=O)[C@](C)(F)[C@@H]2O1 (stereo partly drawn) [Compound 107, Isopropyl 2-((((4aR,6R,7R,7aR)-6-(2,4-dioxo-3,4-dihydropyrimidin-1(2H)-yl)-7-fluoro-7-methyl-2-oxidotetrahydro-4H-furo[3,2-d][1,3,2]dioxaphosphinin-2-yl)oxy)methyl)benzoate] | substantially higher levels | – | – | – |
| [2H]C([2H])([2H])c1cn([C@H]2C[C@H](O)[C@@H](CO)O2)c(=O)[nH]c1=O [Thymidine-d3] | – | 1.0 | 1.0 | 1.0 |
| [2H]C([2H])([2H])c1cn([C@H]2C[C@@H]3OP(=O)(OCc4ccccc4C(=O)OCCC)OC[C@H]3O2)c(=O)[nH]c1=O (stereo partly drawn) [Compound 106, Propyl 2-((((4aR,6R,7aS)-6-(5-(methyl-d3)-2,4-dioxo-3,4-dihydropyrimidin-1(2H)-yl)-2-oxidotetrahydro-4H-furo[3,2-d][1,3,2]dioxaphosphinin-2-yl)oxy)methyl)benzoate] | substantially higher levels | – | – | – |
